{"source": "patent US20140154717A1", "about": "“METHOD FOR DETECTING CANCER CELL USING FLUORESCENTLY LABELED L-GLUCOSE DERIVATIVE, AND CANCER CELL-IMAGING AGENT COMPRISING FLUORESCENTLY LABELED L-GLUCOSE DERIVATIVE” (priority 2011, published 2014)", "system": "mouse insulinoma cells (MIN6)", "experiment": "Confocal imaging of tumor cell clusters composed of mouse insulinoma cells (MIN6) using 2-NBDLG", "assay_type": "cell-based", "settings": "100 μM, perfusion 3 minutes, just after washout; MIN6 cultured 11 days", "description": "Culture medium containing MIN6 cells suspended at a proportion of 10×10^4 cells/mL was dispersed by pipetting, and dropped on a glass cover slip, then, allowed to stand still in a 5% CO2 incubator for 20 minutes to cause adhesion to the glass surface, and 3 mL of the culture medium was added, and the cells were cultured. The half quantity of the culture medium was exchanged every two days.\nMIN6 cells (provided by Professor Miyazaki Junichi, Osaka University, and the passage number was six to nine times) were seeded on a 10 cm petri dish, allowed to stand still in a CO2 incubator, and cultured at 37° C. The half quantity of the culture medium was exchanged every two days.\nHigh glucose-containing Dulbecco's modified Eagle's Medium (DMEM-HG) (SIGMA #D5648) (13.4 g), NaHCO3 (Wako, No. 191-01305) (3.4 g) and 2-Mercaptoethanol (Wako, No. 135-14352) (5 μL) were dissolved in 1 liter of ultra-pure water (Mili Q), and equilibrated with ambient air. Next, pH was adjusted to 7.3 to 7.35 using 1N HCl in a CO2 incubator at 37° C., and sterilized by suction filtration. Directly before use, Hyclone Fetal Bovine Serum (Cat# SH30070.03) was added so as to give a final concentration of 10% and penicillin-streptomycin (Gibco #15140) was added so as to give a final concentration of 0.5%.\nMIN6 cells were prepared with culture medium so that the cell number was 10×10^4 cells/mL.\nThe whole quantity of one vial of 0.5 mg 2-NBDLG was dissolved in 14. 6 mL of a HEPES solution for image acquisition, for preparing a 2-NBDLG solution having a final concentration of 100 μM.\nNaCl 131.8 mM, KCl 4.75 mM, KH2PO4 1.19 mM, MgCl2 1.2 mM, CaCl2 1 mM, NaHCO3 5.0 mM, D-Glucose 2.8 mM, HEPES 10 mM (adjusted to pH 7.35 with 1M NaOH). For inhibiting entrance and elimination of fluorescently labeled glucose via a gap junction/hemichannel, 0.1 mM Carbenoxolone (SIGMA #C4790) was added. The HEPES solution for image acquisition was used as a solution for preparing a 2-NBDLG solution and as a solution for preparing a 2-NBDLG/2-TRLG solution. […]", "data": [{"smiles": "O=[N+]([O-])c1ccc(NC2C(O)OC(CO)[C@H](O)C2O)c2nonc12", "note": "(stereo partly drawn) [2-NBDLG, 2-[N-(7-Nitrobenz-2-oxa-1,3-diazol-4-yl)amino]-2-deoxy-L-glucose]", "values": [{"measurement": "uptake into cell cluster (a), developed cluster with abnormal nuclei", "result": "intense uptake"}, {"measurement": "uptake into cell cluster (b), normal nucleus morphology", "result": "only a slight uptake"}, {"measurement": "uptake into cell cluster (c), two-dimensionally accumulated planar cluster", "result": "almost no increase in the fluorescence intensity"}]}]}
